Key:
Assay type in all cases: cell-based
[1] = test system: Sporobolomyces roseus; assay: Screening against yeasts; set-up: key: 3 = complete inhibition of growth, 2 = growth partially controlled; conditions: test compound concentration 500 μmol
Description: (§1) The stock solutions with the test compounds were pipetted into multiwell plates and mixed with warm tryptose broth agar (2.6%) in order to reach a test compound concentration of 500 μMol. The medium was allowed to cool and subsequently inoculated with the bacteria. Wells were placed in an incubator at 27° C. and a relative humidity of 70%. After sufficient growth of the untreated cultures, the test was evaluated.
(§2) 3: complete inhibition of bacterial growth
(§3) 2: bacterial growth partially controlled
(§4) A number of compounds of formula (I) were also tested in a screening against certain The test conditions are the same as described in biological example C.1. The concentration of the test compound was also 500 μmol, and the scoring system used was also the same.
Sporobolomyces roseus (21)

[2] = test system: Pseudomonas aeruginosa; assay: Primary bacteria screening; set-up: key: score: 3 = complete inhibition of growth, 2 = growth partially controlled; conditions: test compound concentration 500 μMol in tryptose broth agar, 27° C.
Description: as §1, §2, §3

[3] = test system: Escherichia coli; assay: Primary bacteria screening; set-up: key: score: 3 = complete inhibition of growth, 2 = growth partially controlled; conditions: test compound concentration 500 μMol in tryptose broth agar, 27° C.
Description: as §1, §2, §3

[4] = test system: Debaryomyces hansenii; assay: Screening against yeasts; set-up: key: 3 = complete inhibition of growth, 2 = growth partially controlled; conditions: test compound concentration 500 μM
Description: as §1, §2, §3, §4
Debaryomyces hansenii (19)

[5] = test system: Rhodotorula rubra; assay: Screening against yeasts; set-up: key: 3 = complete inhibition of growth, 2 = growth partially controlled; conditions: test compound concentration 500 μmol
Description: as §1, §2, §3, §4

SMILES: c1ccc(-c2ccc(C(NC3CCN(C4CCNCC4)CC3)c3ccccc3)cc2)cc1 (stereo not shown) [compound 47]
- Test yeast (21) Sporobolomyces roseus (score) [1]: 3
- P. aeruginosa (growth inhibition score) [2]: 1
- E. coli (growth inhibition score) [3]: 3
- Test yeast (19) Debaryomyces hansenii (score) [4]: 3
- Test yeast (20) Rhodotorula rubra (score) [5]: 3

SMILES: Cl.Cl.NCCC1CCN(CCC(c2ccccc2)c2ccc(-c3ccccc3)cc2)CC1 (stereo not shown) [compound 29]
- Test yeast (21) Sporobolomyces roseus (score) [1]: 3
- P. aeruginosa (growth inhibition score) [2]: 1
- E. coli (growth inhibition score) [3]: 3
- Test yeast (19) Debaryomyces hansenii (score) [4]: 3
- Test yeast (20) Rhodotorula rubra (score) [5]: 3

SMILES: Cl.Fc1ccc(C(c2ccc(-c3ccccc3)cc2)C2CCN(C3CCNCC3)CC2)cc1 (stereo not shown) [compound 11]
- Test yeast (21) Sporobolomyces roseus (score) [1]: 3
- P. aeruginosa (growth inhibition score) [2]: 3
- E. coli (growth inhibition score) [3]: 3
- Test yeast (19) Debaryomyces hansenii (score) [4]: 3
- Test yeast (20) Rhodotorula rubra (score) [5]: 1

SMILES: NCCC1CCN(CC=C(c2ccccc2)c2ccc(-c3ccccc3)cc2)CC1.O=C(O)C(=O)O.O=C(O)C(=O)O [compound 25]
- Test yeast (21) Sporobolomyces roseus (score) [1]: 3
- P. aeruginosa (growth inhibition score) [2]: 1
- E. coli (growth inhibition score) [3]: 3
- Test yeast (19) Debaryomyces hansenii (score) [4]: 3
- Test yeast (20) Rhodotorula rubra (score) [5]: 1

SMILES: Cl.Cl.Cl.c1ccc(-c2ccc(C(c3ccccc3)N3CCN(C4CCNCC4)CC3)cc2)cc1 (stereo not shown) [compound 46]
- Test yeast (21) Sporobolomyces roseus (score) [1]: 3
- P. aeruginosa (growth inhibition score) [2]: 3
- E. coli (growth inhibition score) [3]: 1
- Test yeast (19) Debaryomyces hansenii (score) [4]: 3
- Test yeast (20) Rhodotorula rubra (score) [5]: 1

SMILES: NC1CCN(CC=C(c2ccccc2)c2ccc(-c3ccccc3)cc2)CC1.O=C(O)C(=O)O.O=C(O)C(=O)O [compound 27]
- Test yeast (21) Sporobolomyces roseus (score) [1]: 3
- P. aeruginosa (growth inhibition score) [2]: 1
- E. coli (growth inhibition score) [3]: 3
- Test yeast (19) Debaryomyces hansenii (score) [4]: 3
- Test yeast (20) Rhodotorula rubra (score) [5]: 1

SMILES: Br.Br.CN(CCC(c1ccccc1)c1ccc(-c2ccccc2)cc1)C1CCNCC1 (stereo not shown) [compound 51]
- Test yeast (21) Sporobolomyces roseus (score) [1]: 3
- P. aeruginosa (growth inhibition score) [2]: 1
- E. coli (growth inhibition score) [3]: 3
- Test yeast (19) Debaryomyces hansenii (score) [4]: 3
- Test yeast (20) Rhodotorula rubra (score) [5]: 3

SMILES: Cc1ccc(C(c2ccc(-c3ccc(F)cc3)cc2)C2CCN(C3CCNCC3)CC2)cc1.Cl.Cl (stereo not shown) [compound 9]
- Test yeast (21) Sporobolomyces roseus (score) [1]: 3
- P. aeruginosa (growth inhibition score) [2]: 2
- E. coli (growth inhibition score) [3]: 3
- Test yeast (19) Debaryomyces hansenii (score) [4]: 3
- Test yeast (20) Rhodotorula rubra (score) [5]: 3

SMILES: NCCCN1CCC(N2CCC(C(c3ccccc3)c3ccc(-c4ccccc4)cc3)CC2)CC1 (stereo not shown) [compound 16]
- Test yeast (21) Sporobolomyces roseus (score) [1]: 3
- P. aeruginosa (growth inhibition score) [2]: 3
- E. coli (growth inhibition score) [3]: 3
- Test yeast (19) Debaryomyces hansenii (score) [4]: 3
- Test yeast (20) Rhodotorula rubra (score) [5]: 3

SMILES: Cl.Cl.Fc1ccc(-c2ccc(C(c3ccc(F)cc3)C3CCN(C4CCNCC4)CC3)cc2)cc1 (stereo not shown) [compound 6]
- Test yeast (21) Sporobolomyces roseus (score) [1]: 3
- P. aeruginosa (growth inhibition score) [2]: 3
- E. coli (growth inhibition score) [3]: 3
- Test yeast (19) Debaryomyces hansenii (score) [4]: 3
- Test yeast (20) Rhodotorula rubra (score) [5]: 3

SMILES: CCN1CCC(N2CCC(C(c3ccccc3)c3ccc(-c4ccccc4)cc3)CC2)CC1.Cl.Cl (stereo not shown) [compound 18]
- Test yeast (21) Sporobolomyces roseus (score) [1]: 3
- P. aeruginosa (growth inhibition score) [2]: 2
- E. coli (growth inhibition score) [3]: 1
- Test yeast (19) Debaryomyces hansenii (score) [4]: 3
- Test yeast (20) Rhodotorula rubra (score) [5]: 1

SMILES: c1ccc(-c2ccc(C(c3ccccc3)C3CCN(C4CCNCC4)CC3)cc2)cc1 (single isomer, unassigned) [compound 23]
- Test yeast (21) Sporobolomyces roseus (score) [1]: 3
- P. aeruginosa (growth inhibition score) [2]: 3
- E. coli (growth inhibition score) [3]: 1
- Test yeast (19) Debaryomyces hansenii (score) [4]: 3
- Test yeast (20) Rhodotorula rubra (score) [5]: 3

SMILES: Br.Br.c1ccc(-c2ccc(C(CCNC3CCNCC3)c3ccccc3)cc2)cc1 (stereo not shown) [compound 50]
- Test yeast (21) Sporobolomyces roseus (score) [1]: 3
- P. aeruginosa (growth inhibition score) [2]: 1
- E. coli (growth inhibition score) [3]: 3
- Test yeast (19) Debaryomyces hansenii (score) [4]: 3
- Test yeast (20) Rhodotorula rubra (score) [5]: 3

SMILES: Br.Br.COc1ccc(C(c2ccc(-c3ccccc3)cc2)C2CCN(C3CCNCC3)CC2)cc1 (stereo not shown) [compound 12]
- Test yeast (21) Sporobolomyces roseus (score) [1]: 3
- P. aeruginosa (growth inhibition score) [2]: 2
- E. coli (growth inhibition score) [3]: 3
- Test yeast (19) Debaryomyces hansenii (score) [4]: 3
- Test yeast (20) Rhodotorula rubra (score) [5]: 2

SMILES: Cl.Cl.Oc1ccc(C(c2ccc(-c3ccccc3)cc2)C2CCN(C3CCNCC3)CC2)cc1 (stereo not shown) [compound 13]
- Test yeast (21) Sporobolomyces roseus (score) [1]: 3
- P. aeruginosa (growth inhibition score) [2]: 3
- E. coli (growth inhibition score) [3]: 3
- Test yeast (19) Debaryomyces hansenii (score) [4]: 3
- Test yeast (20) Rhodotorula rubra (score) [5]: 1

SMILES: CN(C)CCCNCC=C(c1ccccc1)c1ccc(-c2ccccc2)cc1 [compound 36]
- P. aeruginosa (growth inhibition score) [2]: 1
- E. coli (growth inhibition score) [3]: 1

SMILES: CC(C)O.Cl.Cl.Fc1ccc(C(=C2CCN(C3CCNCC3)CC2)c2ccc(-c3ccccc3)cc2)cc1 [Co. No. 2, 4-[[(1,1′-biphenyl)-4-yl](4-fluorophenyl)methylen](1,4′-bipiperidine)dihydrochloride 2-propanolate (1:1)]
- P. aeruginosa (growth inhibition score) [2]: 1
- E. coli (growth inhibition score) [3]: 3

SMILES: NCCCNCCC(c1ccccc1)c1ccc(-c2ccccc2)cc1.NS(=O)(=O)O.NS(=O)(=O)O (stereo not shown) [compound 67]
- P. aeruginosa (growth inhibition score) [2]: 2
- E. coli (growth inhibition score) [3]: 3

SMILES: CN(C)CCC1CCN(CCC(O)(c2ccc(-c3ccccc3)cc2)c2ccc(Cl)cc2Cl)CC1.Cl.Cl (racemic) [Co. No. 34, (±)-α-[(1,1 ′-biphenyl)-4-yl]-a-(2,4-dichlorophenyl)-4-[2-(dimethylamino)ethyl]-1-piperidine-propanol dihydrochloride]
- P. aeruginosa (growth inhibition score) [2]: 1
- E. coli (growth inhibition score) [3]: 1

SMILES: CN(CCCN)CCCNC(c1ccccc1)c1ccc(-c2ccccc2)cc1.O=C(O)C(=O)O.O=C(O)C(=O)O.O=C(O)C(=O)O (stereo not shown) [compound 53]
- P. aeruginosa (growth inhibition score) [2]: 1
- E. coli (growth inhibition score) [3]: 3

SMILES: NCCCN1CCC(C(c2ccccc2)c2ccc(-c3ccccc3)cc2)CC1.NCCCN1CCC(C(c2ccccc2)c2ccc(-c3ccccc3)cc2)CC1.O.O.O=C(O)C(O)C(O)C(=O)O.O=C(O)C(O)C(O)C(=O)O.O=C(O)C(O)C(O)C(=O)O (single isomer, unassigned) [compound 84]
- P. aeruginosa (growth inhibition score) [2]: 3
- E. coli (growth inhibition score) [3]: 3

SMILES: CNCCNCCC(c1ccccc1)c1ccc(-c2ccccc2)cc1.Cl.Cl (racemic) [Co. No. 56, (±)-N-[3-([1,1′-biphenyl]-4-yl)-3-phenylpropyl]-N′-methyl-1,2-ethanediamine dihydrochloride]
- P. aeruginosa (growth inhibition score) [2]: 1
- E. coli (growth inhibition score) [3]: 3

SMILES: Cl.Cl.c1ccc(C(=C2CCN(C3CCNCC3)CC2)c2ccc(-c3ccccc3)cc2)cc1 [compound 3]
- P. aeruginosa (growth inhibition score) [2]: 1
- E. coli (growth inhibition score) [3]: 1

SMILES: Cl.Cl.NCCCN1CCC(C(c2ccccc2)c2ccc(-c3ccccc3)cc2)CC1.O.O.O.O (stereo not shown) [Co. No. 78, (A)-4-[([1,1′-biphenyl]-4-yl)phenylmethyl]-1-piperidinepropanamine dihydrochloride tetrahydrate]
- P. aeruginosa (growth inhibition score) [2]: 3
- E. coli (growth inhibition score) [3]: 3

SMILES: Cl.Cl.Fc1ccc(-c2ccc(C(c3ccc(Cl)cc3)C3CCN(C4CCNCC4)CC3)cc2)cc1 (stereo not shown) [compound 8]
- P. aeruginosa (growth inhibition score) [2]: 3
- E. coli (growth inhibition score) [3]: 3

SMILES: CN1CCC(N2CCC(C(c3ccccc3)c3ccc(-c4ccccc4)cc3)CC2)CC1 (stereo not shown) [compound 19]
- P. aeruginosa (growth inhibition score) [2]: 1
- E. coli (growth inhibition score) [3]: 1
